Source: US20200246465A1, “USE OF TRYPTOPHAN DERIVATIVES FOR PROTEIN FORMULATIONS” (Genentech, Inc., priority 2015, published 2020)
Several values for one entry are separate records, joined by “and”; a condition that tells them apart may be missing. Equal entries are not always repeated.

Columns and labels:
Assay type in all cases: physicochemical
[1] = Fenton stress of NAT in formulation buffer, RP-HPLC at 240 nm; details: for % NAT degradation ± 1SD: Fenton stress (0.2 mM FeCl2, 10 ppm H2O2, 3 hours 40° C.)
Description: FeCl2 (Sigma Aldrich, 98% purity) and H2O2 (Sigma Aldrich, 30% w/w in H2O) were added to a final concentration of 0.2 mM and 10 ppm, respectively, to a histidine-containing buffer at pH 5.5 with 0.3 mM NAT ±5 mM L-Met, pH 5.5. Upon addition of H2O2 the vials were vortexed briefly and incubated for 3 hours at 40° C. Oxidation was quenched by the addition of L-Met to a final concentration of 100 mM. After the addition of the quenching solution, the final NAT concentration was 0.2 mM.
(§1) NAT and NAT degradants were separated on an Agilent 1200 series HPLC or Waters H Class UPLC using an Agilent ZORBAX SB-C18 3.5 μm, 4.6×75 mm reverse phase column. Column temperature was held at 30±0.8° C. by a thermostat controller. The gradients used for HPLC and UPLC are listed in Tables 5 and 6, respectively (note: the shorter gradient on the UPLC was designed to accommodate earlier retention times and the column re-equilibration period was elongated due to the larger range of system pressure at a flow rate of 1.0 ml/min). NAT degradation products were detected at 240 nm. The standard bandwidth setting (8 nm for Agilent 1200 HPLC, 4.8 nm for Waters H-Class) was used for analysis on each instrument. The autosampler was maintained at 5±3° C. 10 nmol of NAT and/or NAT degradants (50 μl for most samples) was injected on to the column for analysis. The chromatograms were processed using Dionex Chromeleon software.
(§2) Total NAT degradation for each sample was calculated by comparing NAT peak area to the control sample for each stress model (Table 7). NAT degradation ranged from 3% (thermal stress, non-His buffer) to 83% (ICH light stress, His buffer).

[2] = AAPH stress of proteins with or without NAT, site-specific Trp oxidation by LC-MS tryptic peptide mapping; details: Mab2 W53 and W106, Mab4 W52, Mab1 W103, Mab6 W103/104; 1 mM AAPH; NAT 0.05-1 mM
Description: Proteins Mab1, Mab2, and Mab3/Mab4 were dialyzed into a sodium acetate buffer (20 mM sodium acetate pH 5.5) and Mab5/Mab6 was dialyzed into a histidine-based buffer (20 mM histidine hydrochloride pH 5.5). Protein solutions were diluted to a final concentration of 1 mg/mL protein in the corresponding buffer and 1 mM 2,2′-Azobis(2-amidinopropane) dihydrochloride (AAPH) was added. N-acetyl-Trp (NAT) was added from a concentrated stock solution to each protein solution at concentrations from 0 to 5 mM. Samples were incubated at 40° C. for 16 hours followed by quenching with methionine and buffer exchange to the initial dialysis buffer plus 100 mM sucrose.
Site-specific modifications of AAPH-stressed samples of Mab2, Mab1, and Mab3/Mab4 were monitored using a microscale tryptic peptide digest followed by liquid chromatography-mass spectrometry (LC-MS) (Anderson, N. et al., Nov. 20, 2014, American Pharmaceutical Review). […]
Peptide mapping of each digested sample was performed on a Waters Acquity H-Class UHPLC coupled to a Thermo Q Exactive Plus high resolution mass spectrometry system (HRMS). […] Column effluent was monitored at 214 nm. […] The oxidation level at each site was determined by extracted ion chromatography (EIC) using the Thermo XCalibur biopharmaceutical characterization software. […]

[3] = ICH light stress of NAT in formulation buffer, RP-HPLC at 240 nm; details: for % NAT degradation ± 1SD: ICH light stress (1.2 million lux-hours, 200 W-hours/m^2 UV, 24 hours), 0.3 mM NAT
Description: A light box [Atlas SunTEST CPS+ Xenon Light Box (Chicago, Ill.)] designed to conduct the drug substance/product photostability test recommended by the International Conference on Harmonization (ICH) Expert Working Group was utilized to provide light stress to NAT-containing samples. The ICH photostability test is defined as 1.2 million lux-hours of white light and 200 W-hours/m^2 of UV light; the light box was programmed to provide the stress over a period of 24 hours. Histidine and non-histidine buffers containing 0.3 mM NAT ±5 mM L-Met were aliquoted into sterile glass vials (1 ml/vial). The vials were capped and placed on their side in the light box to maximize exposure to the light source. A control sample for each buffer condition was covered in foil and placed in the light box for the duration of exposure. For consistency with the other stress models, prior to HPLC analysis, the buffer solutions were diluted with Milli-Q H2O to a final NAT concentration of 0.2 mM.
as §1, §2

SMILES: CC(=O)N[C@@H](Cc1c[nH]c2ccccc12)C(=O)O [NAT, N-acetyl-tryptophan]
- improvement to NAT stability by 5 mM Met (total NAT loss) ([1]; Fenton model): 25%
- % NAT degradation ± 1SD ([1]; His + 5 mM Met buffer, 0.3 mM NAT): 15.2 ± 0.7 (n = 3) %
- % NAT degradation ± 1SD ([1]; His buffer pH 5.5, 0.3 mM NAT): 40 ± 3 (n = 3) %
- NAT degradation (loss) ([1]; Fenton stress, under all tested conditions): 30-40% and 33-41%
- NAT protection from AAPH-induced oxidation of oxidation-prone tryptophan residues [2]: able to protect each tested residue from oxidation
- % NAT degradation ± 1SD ([3]; His + 5 mM Met buffer): 17.6 ± 0.7 (n = 2) %
- % NAT degradation ± 1SD ([3]; His buffer): 83.4 ± 0.2 (n = 2) %
- % NAT degradation ± 1SD ([3]; Non-His + 5 mM Met buffer): 18 ± 2 (n = 2) %
- % NAT degradation ± 1SD ([3]; Non-His buffer): 28% and 28.0 ± 0.1 (n = 2) %
- improvement to NAT stability by 5 mM Met (total NAT loss) ([3]; ICH light stress conditions): 10-16%
